Values of other authors as cited in publication PMC9834611 (Pharmacology Research & Perspectives, 2023).

Experiments:
[1] = cited from earlier work
CYP3A4 = tested on: CYP3A4; parameters: method as in PMID 25141173; conditions: cited from earlier work
ABCB1 = tested on: ABCB1; parameters: method as in PMID 11770010; conditions: Caco‐2 cell lines; cited from earlier work

Compound | LD50 compared with parent VBL [1] | increase in CYP3A4 mRNA expression (CYP3A4) | effect on CYP3A4 (CYP3A4; human hepatocytes) | effect on ABCB1 (ABCB1)
CC[C@]1(O)C[C@@H]2CN(CCc3c([nH]c4ccccc34)[C@@](C(=O)OC)(c3cc4c(cc3OC)N(C)[C@H]3[C@@](O)(C(=O)OC)[C@H](O)[C@]5(CC)C=CCN6CC[C@]43[C@@H]65)C2)C1 [4‐deacetylvinblastine] | lower than that of the parent |  |  | 
COc1ccc2[nH]c([S+]([O-])Cc3ncc(C)c(OC)c3C)nc2c1 (stereo not shown) [Omeprazole] |  | twofold | inducer | inhibitor
